Reference: patent US10030047B2 (Hoffmann-La Roche Inc., priority 2015, dated 2018)
≈ marks a conversion by molar mass, not a printed value.

Test system: A. baumannii strain ATCC19606
Assay: Minimum inhibitory concentration (MIC) determination, microbroth dilution (CLSI)
Format: cell-based
Settings: Acinetobacter baumannii; A. baumannii ATCC19606; CAMHB; read after 20 hours; >=80% growth inhibition; read-out: ATCC19606 MIC
How it was run: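 CLSI broth microdilution in cation-adjusted Mueller Hinton broth with twofold compound dilutions and ~5×10^5 CFU/ml inoculum, incubated at 35±2 °C. MIC read after 20 h as lowest concentration inhibiting ≥80% of growth, by eye and OD 600 nm.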

Row | MIC | Structure (SMILES)
1 | 64 µg/mL (≈ 84.7 µM) | CN1C(=O)[C@H](CCCCN)NC(=O)[C@H](CCCN)NCc2ccccc2Sc2ccnc(N3CCOCC3)c2CNC(=O)[C@@H]1Cc1c[nH]c2ccccc12 [Example 193]
2 | 1 µg/mL (≈ 1.14 µM) | Cc1[nH]c2ccccc2c1C[C@H]1C(=O)NCc2cc(-c3cncc(S(C)(=O)=O)c3)cc(Cl)c2Sc2ncccc2CN[C@@H](CCCN)C(=O)N[C@@H](CCCCN)C(=O)N1C [Example 199, (11S,14S,17S)-14-(4-Amino-butyl)-11-(3-amino-propyl)-25-chloro-23-(5-methanesulfonyl-pyridin-3-yl)-16-methyl-17-(2-methyl-1H-indol-3-ylmethyl)-2-thia-4,10,13,16,19-pentaaza-tricyclo[19.4.0.0*3,8*]pentacosa-1(25),3(8),4,6,21,23-hexaene-12,15,18-trione]
3 | 0.12 µg/mL (≈ 0.151 µM) | Cc1[nH]c2ccccc2c1C[C@H]1C(=O)NCc2c(-c3cccnc3)ccc(Cl)c2Sc2ncccc2CN[C@@H](CCCN)C(=O)N[C@@H](CCCCN)C(=O)N1C [Example 200, (11S,14S,17S)-14-(4-Amino-butyl)-11-(3-amino-propyl)-25-chloro-16-methyl-17-(2-methyl-1H-indol-3-ylmethyl)-22-pyridin-3-yl-2-thia-4,10,13,16,19-pentaaza-tricyclo[19.4.0.0*3,8*]pentacosa-1(25),3(8),4,6,21,23-hexaene-12,15,18-trione]
4 | 0.12 µg/mL (≈ 0.151 µM) | Cc1[nH]c2ccccc2c1C[C@H]1C(=O)NCc2c(-c3ccncc3)ccc(Cl)c2Sc2ncccc2CN[C@@H](CCCN)C(=O)N[C@@H](CCCCN)C(=O)N1C [Example 202, (11S,14S,17S)-14-(4-Amino-butyl)-11-(3-amino-propyl)-25-chloro-16-methyl-17-(2-methyl-1H-indol-3-ylmethyl)-22-pyridin-4-yl-2-thia-4,10,13,16,19-pentaaza-tricyclo[19.4.0.0*3,8*]pentacosa-1(25),3(8),4,6,21,23-hexaene-12,15,18-trione]
5 | 1 µg/mL (≈ 1.12 µM) | Cc1[nH]c2ccccc2c1C[C@H]1C(=O)NCc2cc(-c3ccnc(N4CCN(C)CC4)c3)cc(Cl)c2Sc2ncccc2CN[C@@H](CCCN)C(=O)N[C@@H](CCCCN)C(=O)N1C [Example 203, (7S,10S,13S)— 10-(4-aminobutyl)-7-(3-aminopropyl)-20-chloro-6,7,9,10,12,13,15,16-octahydro-12-methyl-13-[(2-methyl-1H-indol-3-yl)methyl]-18-[2-(4-methyl-1-piperazinyl)-4-pyridinyl]pyrido[2,3-b][1,5,8,11,14]benzothiatetraazacycloheptadecine-8,11,14(5H)-trione]
6 | 64 µg/mL (≈ 84.5 µM) | CN1C(=O)[C@H](CCCCN)NC(=O)[C@H](CCCN)NCc2cccnc2Sc2cnc(N3CCOCC3)cc2CNC(=O)[C@@H]1Cc1c[nH]c2ccccc12 [Example 204, (7S,10S,13S)-13-((1H-Indol-3-yl)methyl)-10-(4-aminobutyl)-7-(3-aminopropyl)-12-methyl-18-morpholino-6,7,9,10,12,13,15,16-octahydrodipyrido[2,3-b:4′,3′-p][1,5,8,11,14]thiatetraazacycloheptadecine-8,11,14(5H)-trione]
7 | 16 µg/mL (≈ 20.5 µM) | COc1cc(-c2cc3c(cn2)Sc2ncccc2CN[C@@H](CCCN)C(=O)N[C@@H](CCCCN)C(=O)N(C)[C@@H](Cc2c[nH]c4ccccc24)C(=O)NC3)ccn1 [Example 205, (7S,10S,13S)-13-((1H-Indol-3-yl)methyl)-10-(4-aminobutyl)-7-(3-aminopropyl)-18-(2-methoxypyridin-4-yl)-12-methyl-6,7,9,10,12,13,15,16-octahydrodipyrido[2,3-b:4′,3′-p][1,5,8,11,14]thiatetraazacycloheptadecine-8,11,14(5H)-trione]
8 | 0.25 µg/mL (≈ 0.305 µM) | CN1C(=O)[C@H](CCCCN)NC(=O)[C@H](CCCN)NCc2cccnc2Sc2c(Cl)cc(-c3cc(F)nc(F)c3)cc2CNC(=O)[C@@H]1Cc1c[nH]c2ccccc12 [Example 209, (11S,14S,17S)-14-(4-Amino-butyl)-11-(3-amino-propyl)-25-chloro-23-(2,6-difluoro-pyridin-4-yl)-17-(1H-indol-3-ylmethyl)-16-methyl-2-thia-4,10,13,16,19-pentaaza-tricyclo[19.4.0.0*3,8*]pentacosa-1(21),3(8),4,6,22,24-hexaene-12,15,18-trione]
9 | 16 µg/mL (≈ 20.8 µM) | CNC(=O)CC[C@@H]1NCc2cccnc2Sc2c(Cl)cc(Cl)cc2CNC(=O)[C@H](Cc2c[nH]c3ccccc23)N(C)C(=O)[C@H](CCCCN)NC1=O [Example 210, 3-[(11S,14S,17S)-14-(4-Amino-butyl)-23,25-dichloro-17-(1H-indol-3-ylmethyl)-16-methyl-12,15,18-trioxo-2-thia-4,10,13,16,19-pentaaza-tricyclo[19.4.0.0*3,8*]pentacosa-1(25),3(8),4,6,21,23-hexaen-11-yl]-N-methyl-propionamide]
10 | 16 µg/mL (≈ 19.8 µM) | CN1C(=O)[C@H](CCCCN)NC(=O)[C@H](CCCN)NCc2cccnc2Sc2c(Cl)cc(-c3ccc(C#N)cc3)cc2CNC(=O)[C@@H]1Cc1c[nH]c2ccccc12 [Example 211, 4-[(11S,14S,17S)-14-(4-Amino-butyl)-11-(3-amino-propyl)-25-chloro-17-(1H-indol-3-ylmethyl)-16-methyl-12,15,18-trioxo-2-thia-4,10,13,16,19-pentaaza-tricyclo[19.4.0.0*3,8*]pentacosa-1(25),3(8),4,6,21,23-hexaen-23-yl]-benzonitrile]
11 | 32 µg/mL (≈ 40.2 µM) | Cc1cc(-c2ccc(Cl)c3c2CNC(=O)[C@H](Cc2c[nH]c4ccccc24)N(C)C(=O)[C@H](CCCCN)NC(=O)[C@H](CCCN)NCc2cccnc2S3)ccn1 [Example 212, (11S,14S,17S)-14-(4-Amino-butyl)-11-(3-amino-propyl)-25-chloro-17-(1H-indol-3-ylmethyl)-16-methyl-22-(2-methyl-pyridin-4-yl)-2-thia-4,10,13,16,19-pentaaza-tricyclo[19.4.0.0*3,8*]pentacosa-1(25),3(8),4,6,21,23-hexaene-12,15,18-trione]
12 | 2 µg/mL (≈ 2.55 µM) | CN1C(=O)[C@H](CCCCN)NC(=O)[C@H](CCCN)NCc2cccnc2Sc2c(Cl)cc(-c3ccncn3)cc2CNC(=O)[C@@H]1Cc1c[nH]c2ccccc12 [Example 213, (11S,14S,17S)-14-(4-Amino-butyl)-11-(3-amino-propyl)-25-chloro-17-(1H-indol-3-ylmethyl)-16-methyl-23-pyrimidin-4-yl-2-thia-4,10,13,16,19-pentaaza-tricyclo[19.4.0.0*3,8*]pentacosa-1(21),3,5,7,22,24-hexaene-12,15,18-trione]
13 | 0.25 µg/mL (≈ 0.291 µM) | CN1C(=O)[C@H](CCCCN)NC(=O)[C@H](CCCN)NCc2cccnc2Sc2c(Cl)cc(-c3ccc(S(N)(=O)=O)cc3)cc2CNC(=O)[C@@H]1Cc1c[nH]c2ccccc12 [Example 214, 4-[(11S,14S,17S)-14-(4-Amino-butyl)-11-(3-amino-propyl)-25-chloro-17-(1H-indol-3-ylmethyl)-16-methyl-12,15,18-trioxo-2-thia-4,10,13,16,19-pentaaza-tricyclo[19.4.0.0*3,8*]pentacosa-1(21),3,5,7,22,24-hexaen-23-yl]-benzenesulfonamide]
14 | 0.25 µg/mL (≈ 0.314 µM) | CN1C(=O)[C@H](CCCCN)NC(=O)[C@H](CCC(N)=O)NCc2cccnc2Sc2c(Cl)ccc(-c3cccnc3)c2CNC(=O)[C@@H]1Cc1c[nH]c2ccccc12 [Example 221, 3-[(11S,14S,17S)-14-(4-Amino-butyl)-25-chloro-17-(1H-indol-3-ylmethyl)-16-methyl-12,15,18-trioxo-22-pyridin-3-yl-2-thia-4,10,13,16,19-pentaaza-tricyclo[19.4.0.0*3,8*]pentacosa-1(25),3(8),4,6,21,23-hexaen-11-yl]-propionamide]
15 | 0.12 µg/mL (≈ 0.15 µM) | CN1C(=O)[C@H](CCCCN)NC(=O)[C@H](CCCN)NCc2cccnc2Sc2c(Cl)ccc(-c3ccnc(F)c3)c2CNC(=O)[C@@H]1Cc1c[nH]c2ccccc12 [Example 222, (11S,14S,17S)-14-(4-Amino-butyl)-11-(3-amino-propyl)-25-chloro-22-(2-fluoro-pyridin-4-yl)-17-(1H-indol-3-ylmethyl)-16-methyl-2-thia-4,10,13,16,19-pentaaza-tricyclo[19.4.0.0*3,8*]pentacosa-1(25),3(8),4,6,21,23hexaene-12,15,18-trione]
16 | 1 µg/mL (≈ 1.25 µM) | CN1C(=O)[C@H](CCCCN)NC(=O)[C@H](CCCN)NCc2cccnc2Sc2c(Cl)cc(-c3ccnc(N)c3)cc2CNC(=O)[C@@H]1Cc1c[nH]c2ccccc12 [Example 223, (11S,14S,17S)-14-(4-Amino-butyl)-11-(3-amino-propyl)-23-(2-amino-pyridin-4-yl)-25-chloro-17-(1H-indol-3-ylmethyl)-16-methyl-2-thia-4,10,13,16,19-pentaaza-tricyclo[19.4.0.0*3,8*]pentacosa-1(21),3,5,7,22,24-hexaene-12,15,18-trione]
17 | 0.12 µg/mL (≈ 0.139 µM) | CN1C(=O)[C@H](CCCCN)NC(=O)[C@H](CCCN)NCc2cccnc2Sc2c(Cl)ccc(-c3ccc(S(N)(=O)=O)cc3)c2CNC(=O)[C@@H]1Cc1c[nH]c2ccccc12 [Example 224, 4-[(11S,14S,17S)-14-(4-Amino-butyl)-11-(3-amino-propyl)-25-chloro-17-(1H-indol-3-ylmethyl)-16-methyl-12,15,18-trioxo-2-thia-4,10,13,16,19-pentaaza-tricyclo[19.4.0.0*3,8*]pentacosa-1(21),3,5,7,22,24-hexaen-22-yl]-benzenesulfonamide]
18 | 0.12 µg/mL (≈ 0.14 µM) | CN1C(=O)[C@H](CCCCN)NC(=O)[C@H](CCCN)NCc2cccnc2Sc2c(Cl)ccc(-c3ccc(S(C)(=O)=O)cc3)c2CNC(=O)[C@@H]1Cc1c[nH]c2ccccc12 [Example 225, (11S,14S,17S)-14-(4-Amino-butyl)-11-(3-amino-propyl)-25-chloro-17-(1H-indol-3-ylmethyl)-22-(4-methanesulfonyl-phenyl)-16-methyl-2-thia-4,10,13,16,19-pentaaza-tricyclo[19.4.0.0*3,8*]pentacosa-1(21),3,5,7,22,24-hexaene-12,15,18-trione]
